Experimental data as given in patent publication US10239887B2, “Positive allosteric modulators of the muscarinic acetylcholine receptor M4” (Vanderbilt University, priority 2016, dated 2019).
Structures can show the parent of a compound that is named as a salt.

Biological target: T1, human mAChR M4 (Homo sapiens, UniProt P08173)
T1 sequence (P08173 1-479): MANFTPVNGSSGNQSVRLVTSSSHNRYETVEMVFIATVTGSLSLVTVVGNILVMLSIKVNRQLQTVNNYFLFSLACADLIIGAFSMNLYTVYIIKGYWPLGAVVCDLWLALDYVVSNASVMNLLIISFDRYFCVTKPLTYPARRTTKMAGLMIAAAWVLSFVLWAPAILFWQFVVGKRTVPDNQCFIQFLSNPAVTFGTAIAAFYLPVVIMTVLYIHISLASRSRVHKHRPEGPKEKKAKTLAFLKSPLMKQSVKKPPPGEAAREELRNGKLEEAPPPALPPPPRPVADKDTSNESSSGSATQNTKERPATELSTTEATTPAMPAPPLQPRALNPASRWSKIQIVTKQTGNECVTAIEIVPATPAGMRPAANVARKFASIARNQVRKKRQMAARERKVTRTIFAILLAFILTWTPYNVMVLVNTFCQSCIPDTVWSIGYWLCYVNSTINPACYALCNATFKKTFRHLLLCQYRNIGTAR
Experiment: mAChR M4 cell-based functional assay (calcium flux), human M4
Details: for EC50: calcium flux; for Emax: % ACh maximum at 30 μM

[1] = Human M4 EC50 (nM), Table 10, PAM activity with EC20 acetylcholine
[2] = Human M4 EC50 (nM), Table 11, PAM activity with EC20 acetylcholine

SMILES | EC50 [1] [nM] | Emax (Table 10) [%] | Emax (Table 11) [%] | further results
Cc1nnc2sc3c(NC4CN(c5cnc(C6CC6)cn5)C4)ncnc3c2c1C [Compound 86, N-[1-(5-cyclopropylpyrazin-2-yl)azetidin-3-yl]-3,4-dimethyl-pyrimido [4′,5′:4,5]thieno[2,3-c] pyridazin-8-amine] | 60.4 | 69 |  | 
Cc1nnc2sc3c(N4CC(C)(N)C4)ncnc3c2c1C [Compound 98, 1-(3,4-dimethylpyrimido [4′,5′:4,5]thieno[2,3-c]pyridazin-8-yl)-3-methyl-azetidin-3-amine dihydrochloride] | 2390 | 50.1 |  | 
Cc1cnc2sc3c(N4CCCC4)ncnc3c2c1 [Compound 15, 8-methyl-4-(pyrrolidin-1-yl) pyrido[3′,2′:4,5]thieno [3,2-d]pyrimidine] |  |  |  | Emax (Human M4): 40%
CCCCCC(=O)N1CC2(CC(Nc3ncnc4c3sc3nnc(C)c(C)c34)C2)C1 [Compound 170, 1-[6-[(3,4-dimethylpyrimido [4′,5′:4,5]thieno[2,3-c]pyridazin-8-yl)amino]-2-azaspiro[3.3]heptan-2-yl]hexan-1-one; 2,2,2-trifluoroacetate acid] | 1260 | 41 |  | 
Cc1nnc2sc3c(NCc4ccc(C(=O)N5CC6CC6C5)cc4)ncnc3c2c1C (stereo not drawn) [Compound 126, 3-azabicyclo[3.1.0] hexan-3-yl-[4-[[(3,4-dimethylpyrimido [4′,5′:4,5]thieno[2,3-c]pyridazin-8-yl)amino]methyl]phenyl] methanone] | 481 | 84.2 |  | 
Cc1nnc2sc3c(NC(C)c4ccc(C5(O)CCC5)cc4)ncnc3c2c1C (stereo not drawn) [Compound 101, 1-[4-[1-[(3,4-dimethylpyrimido [4′,5′:4,5]thieno[2,3-c]pyridazin-8-yl)amino]ethyl]phenyl]cyclobutanol] | 839 | 59.2 |  | 
Cc1nnc2oc3c(NC4CN(c5ncc(F)cn5)C4)ncnc3c2c1C [Compound 63, N-[1-(5-Fluoropyrimidin-2-yl)azetidin-3-yl]-3,4-dimethyl-pyrimido[4′,5′:4,5]furo[2,3-c]pyridazin-8-amine] |  |  |  | Emax (Human M4): 36.8%
CNc1ncnc2c1oc1nc(C)c(Cl)c(C)c12 [Compound 44, 8-chloro-N,7,9-trimethyl-pyrido[3′,2′:4,5]furo[3,2-d]pyrimidin-4-amine hydrochloride] |  |  |  | Emax (Human M4): 39.8%; EC50 (Human M4 EC50, CHO-K1 hM4-Gqi5 cells, increase in EC20 acetylcholine response): 1690 nM
Cc1nnc2sc3c(NCc4ccc(C(=O)N5CCCC5)cc4)ncnc3c2c1C [Compound 122, [4-[[(3,4-dimethylpyrimido [4′,5′:4,5]thieno[2,3-c]pyridazin-8-yl)amino]methyl]phenyl]-pyrrolidin-1-yl-methanone] | 482 | 83.7 |  | 
CC(=O)NC1CN(c2ncnc3c2sc2nnc(C)c(C)c23)C1 [Compound 96, N-[1-(3,4-dimethylpyrimido [4′,5′:4,5]thieno[2,3-c]pyridazin-8-yl)azetidin-3-yl]acetamide] | 830 | 60.3 |  | 
Cc1nnc2sc3c(NCc4ccc(-c5ccccn5)cc4)ncnc3c2c1C [Compound 109, 3,4-dimethyl-N-[[4-(2-pyridyl)phenyl]methyl] pyrimido[4′,5′:4,5]thieno [2,3-c]pyridazin-8-amine hydrochloride] | 748 | 79.2 |  | 
COc1ccc(CNc2ncnc3c2sc2nnc(C)c(C)c23)cc1 [Compound 135, N-[(4-methoxyphenyl)methyl]-3,4-dimethyl-pyrimido[4′,5′:4,5]thieno [2,3-c]pyridazin-8-amine] | 139 | 87.8 |  | 
Cc1cnc(N2CC3(CC(Nc4ncnc5c4sc4nnc(C)c(C)c45)C3)C2)nc1 [Compound 165, 3,4-dimethyl-N-[2-(5-methylpyrimidin-2-yl)-2-azaspiro[3.3]heptan-6-yl]pyrimido [4′,5′:4,5]thieno[2,3-c] pyridazin-8-amine] | 2410 | 31.6 |  | 
Cc1nnc2sc3c(NC4CC5(C4)CN(c4ncc(Cl)cc4F)C5)ncnc3c2c1C [Compound 164, N-[2-(5-chloro-3-fluoro-2-pyridyl)-2-azaspiro [3.3]heptan-6-yl]-3,4-dimethyl-pyrimido [4′,5′:4,5]thieno[2,3-c] pyridazin-8-amine] | 3500 | 22.7 |  | 

The next lines start with results.

EC50 [1] [nM] | Emax (Table 10) [%] | Emax (Table 11) [%] | SMILES | further results
 |  | 100 | COC(C)(C)c1ccc(CNc2ncnc3c2sc2nnc(C)c(C)c23)cc1 [Compound 367, N-[[4-(1-methoxy-1-methyl-ethyl)phenyl]methyl]-3,4-dimethyl-pyrimido[4′,5′:4,5] thieno[2,3-c]pyridazin-8-amine] | 
9160 | 59.5 |  | Cc1nnc2oc3c(NCc4ccc(C(C)(C)O)nc4)ncnc3c2c1C [Compound 308, 2-[5-[[(3,4-dimethylpyrimido [4′,5′:4,5]furo[2,3-c]pyridazin-8-yl)amino]methyl]-2-pyridyl]propan-2-ol] | 
 |  | 48.8 | Cc1nnc2sc3c(N4CC[C@@H](C(C)(C)O)C4)ncnc3c2c1C [Compound 353, 2-[(3R)-1-(3,4-dimethylpyrimido [4′,5′:4,5]thieno[2,3-c]pyridazin-8-yl)pyrrolidin-3-yl]propan-2-ol] | EC50 [2]: 321 nM
 |  | 64.6 | Cc1nnc2sc3c(NCc4cccc(-c5ncccn5)c4)ncnc3c2c1C [Compound 327, 3,4-dimethyl-N-[(3-pyrimidin-2-ylphenyl)methyl]pyrimido [4′,5′:4,5]thieno[2,3-c] pyridazin-8-amine] | EC50 [2]: 1770 nM
 |  | 101 | Cc1nnc2sc3c(NCc4ccc(C5COC5)cc4)ncnc3c2c1C [Compound 374, 3,4-dimethyl-N-[[4-(oxetan-3-yl)phenyl]methyl] pyrimido[4′,5′:4,5]thieno [2,3-c]pyridazin-8-amine] | EC50 [2]: 45.2 nM
 |  | 56.8 | Cc1nnc2sc3c(N4CCC(Oc5ccnc(Cl)c5)CC4)ncnc3c2c1C [Compound 346, 8-[4-[(2-chloro-4-pyridyl)oxy]-1-piperidyl]-3,4-dimethyl-pyrimido [4′,5′:4,5]thieno[2,3-c] pyridazine] | EC50 [2]: 749 nM
2340 | 73 |  | Cc1nc2sc3c(N4CCC(F)(F)C4)ncnc3c2c(C)c1Cl [Compound 255, 8-chloro-4-(3,3-difluoropyrrolidin-1-yl)-7,9-dimethyl-pyrido [3′,2′:4,5]thieno[3,2-d] pyrimidine hydrochloride] | 
 |  | 78.8 | CNC(=O)c1ccc(CNc2ncnc3c2sc2nnc(C)c(C)c23)cc1Cl [Compound 325, 2-chloro-4-[[(3,4-dimethylpyrimido [4′,5′:4,5]thieno[2,3-c]pyridazin-8-yl)amino]methyl]-N-methyl-benzamide] | EC50 [2]: 62.2 nM
4840 | 46.1 |  | Cc1nnc2oc3c(N4CC5(COC5)C4)ncnc3c2c1C [Compound 307, 3,4-dimethyl-8-(2-oxa-6-azaspiro[3.3]heptan-6-yl)pyrimido[4′,5′:4,5] furo[2,3-c]pyridazine] | 
775 | 79.8 |  | Cc1nnc2sc3c(NCc4ccc(C(C)(C)O)c(Cl)c4)ncnc3c2c1C [Compound 188, 2-[2-chloro-4-[[(3,4-dimethylpyrimido [4′,5′:4,5]thieno[2,3-c]pyridazin-8-yl)amino]methyl]phenyl]propan-2-ol] | 
1200 | 42.5 |  | Cc1cc(C)c2c(n1)oc1c(NCc3ccc(S(C)(=O)=O)cc3)ncnc12 [Compound 292, 7,9-dimethyl-N-[(4-methylsulfonylphenyl)methyl]pyrido[3′,2′:4,5]furo [3,2-d]pyrimidin-4-amine hydrochloride] | 
 |  | 78.1 | Cc1nnc2sc3c(N4CC(Oc5cnccn5)C4)ncnc3c2c1C [Compound 350, 3,4-dimethyl-8-(3-pyrazin-2-yloxyazetidin-1-yl) pyrimido[4′,5′:4,5]thieno [2,3-c]pyridazine dihydrochloride] | EC50 [2]: 404 nM
 |  | 100 | [2H]C([2H])(Nc1ncnc2c1sc1nnc(C)c(C)c12)c1ccc(C(C)(C)O)cc1 [Compound 369, 2-[4-[dideuterio-[(3,4-dimethylpyrimido[4′,5′:4,5]thieno[2,3-c]pyridazin-8-yl)amino]methyl]phenyl] propan-2-ol] | 
 |  | 39.1 | CNC(=O)c1cc(CN(C)c2ncnc3c2sc2nnc(C)c(C)c23)ccc1F [Compound 333, 5-[[(3,4-dimethylpyrimido [4′,5′:4,5]thieno[2,3-c]pyridazin-8-yl)(methyl)amino]methyl]-2-fluoro-N-methyl-benzamide] | EC50 [2]: 1810 nM
1640 | 61.1 |  | COc1ccc(C2CC2Nc2ncnc3c2sc2nc(C)cc(C)c23)cc1 (stereo not drawn) [Compound 202, N-[2-(4-methoxyphenyl)cyclopropyl]-7,9-dimethyl-pyrido [3′,2′:4,5]thieno[3,2-d] pyrimidin-4-amine] | 
 |  | 93.6 | Cc1c(CO)nnc2sc3c(NCc4ccc(C(C)(C)O)cc4)ncnc3c12 [Compound 377, 2-[4-[[[3-(hydroxymethyl)-4-methyl-pyrimido[4′,5′:4,5]thieno[2,3-c]pyridazin-8-yl]amino]methyl]phenyl]propan-2-ol] | 
 |  | 65.2 | Cc1cc(O[C@H]2C[C@@H](C)N(c3ncnc4c3sc3nnc(C)c(C)c34)C2)ccn1 [Compound 365, 3,4-dimethyl-8-[(2R,4S)-2-methyl-4-[(2-methyl-4-pyridyl)oxy]pyrrolidin-1-yl]pyrimido [4′,5′:4,5]thieno[2,3-c] pyridazine dihydrochloride] | EC50 [2]: 551 nM
